For six compounds, binding and KD results are on record in publication PMC7373994 (2020).

What all share (assay): in-line probing
The test system of assay [1] is 53 tauA (RNA, riboswitch) GGAGAGUGAGUAGAAGCGGUCAGUGCAGGCAGCUGCGCGGGACAUUGCUCAGCAA
Particulars: 100 mM KCl, 20 mM MgCl2, 100 mM Tris-HCl pH 8.3, 19°C; for binding: tested up to 1 mM, 53 or 68 tauA construct not specified; for KD: apparent.

Assay [2] concerns 68 tauA M2 (G38C) (RNA, riboswitch) GGAGAGUGAGUAGAAGCGGUCAGUGCAGGCAGCUGCGCGCGACAUUGCUCAGCAACCAUUUCGCGGUUCA
Particulars: 100 mM KCl, 20 mM MgCl2, 100 mM Tris-HCl pH 8.3, 19°C.

The subject of assay [3] is 68 tauA M1 (A12U) (RNA, riboswitch) GGAGAGUGAGUAGUAGCGGUCAGUGCAGGCAGCUGCGCGGGACAUUGCUCAGCAACCAUUUCGCGGUUCA
To be noted: 100 mM KCl, 20 mM MgCl2, 100 mM Tris-HCl pH 8.3, 19°C.

For assay [4], the system named is 68 tauA (RNA, riboswitch) GGAGAGUGAGUAGAAGCGGUCAGUGCAGGCAGCUGCGCGGGACAUUGCUCAGCAACCAUUUCGCGGUUCA
Particulars: 100 mM KCl, 20 mM MgCl2; 100 mM Tris-HCl pH 8.3, 19°C; qualitative, wild type compared with mutants.

Assay [5] relates to 68 tauA M3 (G6C, A7U) (RNA, riboswitch) GGAGAGUCUGUAGAAGCGGUCAGUGCAGGCAGCUGCGCGGGACAUUGCUCAGCAA
To be noted: 100 mM KCl, 20 mM MgCl2; 100 mM Tris-HCl pH 8.3, 19°C.

Regarding `Cn1c(=O)[nH]c2c(=O)[nH]c(=O)[nH]c21`, in assay [1], the binding result is given as “no”.
`O=c1[nH]c(=O)c2[nH]c(=O)[nH]c2[nH]1`: the binding entry in assay [2] (tested up to 1000 µM) and in assay [3] (tested up to 1000 µM) was “no” in each case. Also, the KD in assay [1] (Figure S2C legend prints 4.3 µM instead) is ~ 25 µM.
Regarding `O=c1[nH]c(=O)c2[nH]cnc2[nH]1`, the binding entry in assay [2] (artifact modulation at highest concentration) is reported as “no”; in assay [4], “yes”; in assay [3] it was “no”; in assay [5] it was “no”. Further, the KD in assay [1] (36 h, two repeats) is on record as ~ 3.7 µM.
Regarding `O=c1[nH]cnc2c1ncn2[C@@H]1O[C@H](CO)[C@@H](O)[C@H]1O`, the binding entry in assay [1] is “no”.
On the same count and under the same terms, with `Cn1c(=O)[nH]c2[nH]c(=O)[nH]c(=O)c21` the entry was “no”.
Turning to `Cn1c(=O)[nH]c(=O)c2[nH]c(=O)[nH]c21`, the binding entry in assay [1] was “no”.
